{"source": "paper PMC6222847", "about": "“Application of HPCCC Combined with Polymeric Resins and HPLC for the Separation of Cyclic Lipopeptides Muscotoxins A–C and Their Antimicrobial Activity” (Molecules : A Journal of Synthetic Chemistry and Natural …, 2018)", "assay": "Partition coefficient (K) in two-phase HPCCC solvent systems", "assay_type": "physicochemical", "settings": "2 mg extract in 2 mL (1 mL per phase), HPLC-ESI-HRMS", "text": "When working with HPCCC, the search for a proper two-phase solvent system has been informed to represent the major part of the work involved in the HPCCC separation. An appropriate two-phase solvent system for HPCCC has to provide a good partition coefficient (0.5 ≤ K ≤ 2.5) for the target compound. […] Additionally, for achieving a good resolution between two closely eluting peaks, the separation factor (α) between the two compounds (α = K2/K1, K2 > K1) should be greater than 1.5 [14, 26]. It is well described that compounds with smaller K values show a poor resolution because they elute closer to the solvent front. On the contrary, those compounds with larger K value are better separated but elute as wider peaks and at later elution times. In the present study, the capacity of different two-phase solvent systems (Table 1) to provide suitable K values of the compounds 1–3 was investigated. The K value is frequently estimated by using HPLC with UV detection, which is calculated by dividing the peak area of the target compound in the upper phase by that of the peak area of the same target compound in the lower phase. However, given that UV chromatogram provided insufficient peak areas for minor muscotoxins, the MS detector was thus used to estimate the K values. By using this approach, the peak area of the molecular ions corresponding to the target compounds were selectively monitored from the base peak chromatogram. As presented in the Table 1, the solvent system 10 (n-hexane, ethyl acetate, ethanol, and water in a ratio of 1:5:1:5) gave suitable K values and a proper separation factor (α) for compounds 2 and 3, as well as a short settling time. […] The improvement of the K value of compound 1 could be achieved by finding out a new solvent system or by modifying the composition of the already selected solvent system. In the present study, the system 10 was acidified by adding acetic acid leading to the system 11 (n-hexane, ethyl acetate, ethanol, water, and acetic acid, 1:5:1:5:1). […] Although the partition coefficients of the target compounds in systems 10 and 11 are strongly correlated, the system 10 ensured a sufficient selectivity (α = 1.5) between the compounds 2 and 3. […] In HPCCC, it is very well established that when the retention of stationary phase is increased, a good chromatographic resolution is achieved. A reduced flow rate of the mobile phase and a high rotational speed of the column favor the retention of the stationary phase inside the HPCCC column. In this study, the flow rate of the mobile phase in the first step and second step of the HPCCC operations was 1 mL/min and the rotational speed was set at 1200 rpm. Moreover, it was observed that a good resolution between the compounds 2 and 3 was achieved when injecting 100 mg of enriched extract.\nDifferent two-phase solvent systems were prepared using n-hexane, ethyl acetate, ethanol, water, and acetic acid in different proportions (Table 1). The prepared solvent systems were investigated for their capacity to provide suitable partition coefficients (K) of the target compounds. In addition, given that the settling time as well as the density difference between the upper and lower phases of each two-phase solvent system are parameters associated with the retention of stationary phase in the column, they were thus estimated and used as selection criteria. For estimating the partition coefficient (Table 1) of the target compound, 2 mg of extract containing the target compounds was dissolved in 2 mL of a given two-phase solvent system (1 mL per each phase). The test tube containing the sample solution was shaken vigorously, and then left, to equilibrate the two phases, for 20 min. Equal volumes of each phase were then analyzed by HPLC-ESI-HRMS to obtain the partition coefficients (K), which were calculated by dividing the peak area of the target compound in the upper phase by the peak area of compound in the lower phase.", "note": "*1 amine or outer side, *2 acyl side, *3 side chain or, on linkers, in order; H or OH if unused. Where a SMILES comes first, the peptide text is derived from it. [ ]: non-standard residue; d: D form. X1 = CCCCCC(O)CC(N[*:1])C(O)C(=O)[*:2]; d(aIle) = CC[C@H](C)[C@@H](N)C(=O)O; Dhb = C/C=C(\\N)C(=O)O", "data": [{"smiles": "C/C=C1\\NC(=O)[C@H](CO)NC(=O)[C@@H]([C@@H](C)CC)NC(=O)[C@H](Cc2ccccc2)NC(=O)[C@@H]2CCCN2C(=O)CNC(=O)[C@@H](CCC(N)=O)NC(=O)C(O)C(CC(O)CCCCC)NC(=O)[C@@H]2CCCN2C(=O)[C@@H]([C@@H](C)CC)NC(=O)[C@H](CO)NC1=O", "note": "(some centres unmarked) [compound 2, muscotoxin A] (cyclo([Dhb]S[d(aIle)]P[X1][dQ]GPF[d(aIle)]S))", "values": [{"measurement": "Partition Coefficient (K) of Muscotoxins", "setting": "solvent system 1, n-Hex–EtOH–H2O 10:5:5, shake test tube, equilibrated 20 min, K = peak area upper phase/lower phase", "result": 0.03}, {"measurement": "Partition Coefficient (K) of Muscotoxins", "setting": "solvent system 2, n-Hex–EtOAc–EtOH–H2O 9:1:5:5, shaken, 20 min, K = peak area UP/LP", "result": 0.03}, {"measurement": "Partition Coefficient (K) of Muscotoxins", "setting": "solvent system 3, n-Hex–EtOAc–EtOH–H2O 8:2:5:5, shaken, 20 min, K = peak area UP/LP", "result": 0.01}, {"measurement": "Partition Coefficient (K) of Muscotoxins", "setting": "solvent system 4, n-Hex–EtOAc–EtOH–H2O 7:3:5:5, shaken, 20 min, K = peak area UP/LP", "result": 0.06}, {"measurement": "Partition Coefficient (K) of Muscotoxins", "setting": "solvent system 5, n-Hex–EtOAc–EtOH–H2O 6:4:5:5, shaken, 20 min, K = peak area UP/LP", "result": 0.09}, {"measurement": "Partition Coefficient (K) of Muscotoxins", "setting": "solvent system 6, n-Hex–EtOAc–EtOH–H2O 5:5:5:5, shaken, 20 min, K = peak area UP/LP", "result": 0.01}, {"measurement": "Partition Coefficient (K) of Muscotoxins", "setting": "solvent system 7, n-Hex–EtOAc–EtOH–H2O 4:5:4:5, shaken, 20 min, K = peak area UP/LP", "result": 0.14}, {"measurement": "Partition Coefficient (K) of Muscotoxins", "setting": "solvent system 8, n-Hex–EtOAc–EtOH–H2O 3:5:3:5, shaken, 20 min, K = peak area UP/LP", "result": 0.32}, {"measurement": "Partition Coefficient (K) of Muscotoxins", "setting": "solvent system 9, n-Hex–EtOAc–EtOH–H2O 2:5:2:5, shaken, 20 min, K = peak area UP/LP", "result": 0.97}, {"measurement": "Partition Coefficient (K) of Muscotoxins", "setting": "solvent system 10, n-Hex–EtOAc–EtOH–H2O 1:5:1:5, shaken, 20 min, K = peak area UP/LP", "result": 0.94}, {"measurement": "Partition Coefficient (K) of Muscotoxins", "setting": "solvent system 11, n-Hex–EtOAc–EtOH–H2O–AcOH 1:5:1:5:1, shaken, 20 min, K = peak area UP/LP", "result": 1.97}]}]}
